Assay results: patent US4892875A, “Substituted heterocyclylalkyl esters of 1,4-dihydropyridine-3,5-dicarboxylic acids” (Takeda Chemical Industries, Ltd., priority 1982, dated 1990)
Like-named read-outs stand apart in the source and are kept apart here.

Assays:
[1] = system: spontaneously hypertensive rats; assay: Antihypertensive action (systolic blood pressure, caudal artery) in male spontaneously hypertensive rats; format: in vivo, rat; details: 10 mg/kg oral; for Change in blood pressure 1 hr. after treatment / Change in blood pressure 5 hrs. after treatment: after minus before medication, * P < 0.05 vs control; for Duration of antihypertensive effect: measured 1, 5, 8 and 24 hours after administration
Description: Male spontaneously hypertensive rats aged 10 to 11 weeks were used (in groups of 3 to 6 individuals). […] Each test compound was suspended in a 5% solution of gum arabic and orally administered. The dosage was 10 mg/kg for all compounds. Animals in a control group was given the above solution of gum arabic only.

[2] = system: spontaneously hypertensive rats; assay: Renal blood flow increasing effect (renal circulation improving effect) in anesthetized male spontaneously hypertensive rats; format: in vivo; details: Rattus norvegicus, 0.01 mg/kg intravenous, * P < 0.05 vs control
Description: Male spontaneously hypertensive rats aged 10 to 11 weeks (3 to 6 animals per group) were anesthetized with pentobarbital and used. After laparotomy, an electromagnetic flowmeter probe (Narco) was fitted to the left renal artery and the renal blood flow was continuously recorded on a polygraph (Sanei Sokki K.K.). […] Each test compound was dissolved in polyethylene glycol 400 to prepare a stock solution. This stock solution was diluted five-fold with physiological saline and the dilution was intravenously administered to rats in a volume of 0.5 ml/kg body weight. The dosage was 0.01 mg/kg for all test compounds. The renal blood flow was measured over a period of 40 minutes following the medication. The values shown are: [formula]

[3] = 1 min, 1 minute, read-out: Change in renal blood flow, 1 Minute after medication
[4] = 20 min, 20 minutes, read-out: Change in renal blood flow, 20 Minutes after medication
[5] = 40 min, 40 minutes, read-out: Change in renal blood flow, 40 Minutes after medication

Structure (SMILES) | Change in blood pressure 1 hr. after treatment [1] | Change in blood pressure 5 hrs. after treatment [1] | Duration of antihypertensive effect [1] | change in vivo at 0.01 mg/kg [2, 3] | change in vivo at 0.01 mg/kg [2, 4] | change in vivo at 0.01 mg/kg [2, 5]
COC(=O)C1=C(C)NC(C)=C(C(=O)OCCN2CCN(C(c3ccccc3)c3ccccc3)CC2)C1c1cccc([N+](=O)[O-])c1.Cl.Cl (stereo not drawn) [Example 1, 2-(4-benzhydryl-1-piperazinyl)ethyl methyl 2,6-dimethyl-4-(3-nitrophenyl)-1,4-dihydropyridine-3,5-dicarboxylate dihydrochloride] | -89 mmHg | -91 mmHg | > 24 h | 10.4% | 13.4% | 12.8%
COC(=O)C1=C(C)NC(C)=C(C(=O)OCCN2CCN(C(c3ccccc3)c3ccccc3)CC2)C1c1cccc(Cl)c1Cl (stereo not drawn) [Example 6, 2-(4-benzhydryl-1-piperazinyl)ethyl methyl 4-(2,3-dichlorophenyl)-2,6-dimethyl-1,4-dihydropyridine-3,5-dicarboxylate] | -30 mmHg | -33 mmHg | 8 to 24 h | 4.5% | 7.5% | 6%
COC(=O)C1=C(C)NC(C)=C(C(=O)OCCN2CCN(C(c3ccc(F)cc3)c3ccc(F)cc3)CC2)C1c1cccc([N+](=O)[O-])c1 (stereo not drawn) [Example 8, 2-[4-(4,4'-difluorobenzhydryl)-1-piperazinyl]ethyl methyl 2,6-dimethyl-4-(3-nitrophenyl)-1,4-dihydropyridine-3,5-dicarboxylate] | -96 mmHg | -98 mmHg | > 24 h | 5.7% | 6.4% | 9.7%
COC(=O)C1=C(C)NC(C)=C(C(=O)OCCN2CCN(C(c3ccc(OC)cc3)c3ccc(OC)cc3)CC2)C1c1cccc([N+](=O)[O-])c1 (stereo not drawn) [Example 10, 2-[4-(4,4'-dimethoxybenzhydryl)-1-piperazinyl]ethyl methyl 2,6-dimethyl-4-(3-nitrophenyl)-1,4-dihydropyridine-3,5-dicarboxylate] | -88 mmHg | -57 mmHg | 8 to 24 h | 6.9% | 8.3% | 6.8%
COC(=O)C1=C(C)NC(C)=C(C(=O)OCCN2CCCN(C(c3ccccc3)c3ccccc3)CC2)C1c1cccc([N+](=O)[O-])c1 (stereo not drawn) [Example 15, 2-(4-benzhydrylhomopiperazin-1-yl)-ethyl methyl 2,6-dimethyl-4-(3-nitrophenyl)-1,4-dihydropyridine-3,5-dicarboxylate] | -38 mmHg | -18 mmHg | 5 to 8 h | 4.2% | 4.2% | 2.9%
CCOC(=O)C1=C(C)NC(C)=C(C(=O)OCCN2CCN(c3ccc(F)cc3)CC2)C1c1cccc([N+](=O)[O-])c1 (stereo not drawn) [Example 41, ethyl 2-[4-(4-fluorophenyl)-1-piperazinyl]ethyl 2,6-dimethyl-4-(3-nitrophenyl)-1,4-dihydropyridine-3,5-dicarboxylate] | -55 mmHg | -67 mmHg | ca. 24 hrs. | – | – | –
COC(=O)C1=C(C)NC(C)=C(C(=O)OCCN2CCN(c3ccc(F)cc3)CC2)C1c1cccc(Cl)c1Cl (stereo not drawn) [Example 43, 2-[4-(4-fluorophenyl)-1-piperazinyl]ethyl methyl 4-(2,3-dichlorophenyl)-2,6-dimethyl-1,4-dihydropyridine-3,5-dicarboxylate] | -54 mmHg | -44 mmHg | 8 to 24 h | – | – | –
COC(=O)C1=C(C)NC(C)=C(C(=O)OCCN2CCN(c3ccccc3Cl)CC2)C1c1cccc([N+](=O)[O-])c1 (stereo not drawn) [Example 44, 2-[4-(2-chlorophenyl)-1-piperazinyl]ethyl methyl 2,6-dimethyl-4-(3-nitrophenyl)-1,4-dihydropyridine-3,5-dicarboxylate] | -44 mmHg | -22 mmHg | 8 to 24 h | – | – | –
COC(=O)C1=C(C)NC(C)=C(C(=O)OCCN2CCN(c3ccc(Cl)cc3)CC2)C1c1cccc([N+](=O)[O-])c1 (stereo not drawn) [Example 45, 2-[4-(4-chlorophenyl)-1-piperazinyl]ethyl methyl 2,6-dimethyl-4-(3-nitrophenyl)-1,4-dihydropyridine-3,5-dicarboxylate] | -57 mmHg | -42 mmHg | 8 to 24 h | – | – | –
COC(=O)C1=C(C)NC(C)=C(C(=O)OCCN2CCN(c3cccc(Cl)c3)CC2)C1c1cccc(Cl)c1Cl (stereo not drawn) [Example 46] | -44 mmHg | -43 mmHg | 8 to 24 h | – | – | –
COC(=O)C1=C(C)NC(C)=C(C(=O)OCCN2CCN(c3ccc(Cl)cc3)CC2)C1c1cccc(Cl)c1 (stereo not drawn) [Example 50, 2-[4-(4-chlorophenyl)-1-piperazinyl]ethyl methyl 4-(3-chlorophenyl)-2,6-dimethyl-1,4-dihydropyridine-3,5-dicarboxylate] | -58 mmHg | -37 mmHg | 8 to 24 h | – | – | –
COC(=O)C1=C(C)NC(C)=C(C(=O)OCCN2CCN(c3ccccc3C)CC2)C1c1cccc([N+](=O)[O-])c1 (stereo not drawn) [Example 51, methyl 2-[4-(2-methylphenyl)-1-piperazinyl]ethyl 2,6-dimethyl-4-(3-nitrophenyl)-1,4-dihydropyridine-3,5-dicarboxylate] | -69 mmHg | -54 mmHg | 8 to 24 h | – | – | –
COC(=O)C1=C(C)NC(C)=C(C(=O)OCCN2CCN(c3ccccc3C)CC2)C1c1cccc(Cl)c1 (stereo not drawn) [Example 52, methyl 2-[4-(2-methylphenyl)-1-piperazinyl]ethyl 4-(3-chlorophenyl)-2,6-dimethyl-1,4-dihydropyridine-3,5-dicarboxylate] | -54 mmHg | -14 mmHg | ca. 8 hrs. | – | – | –
COC(=O)C1=C(C)NC(C)=C(C(=O)OCCN2CCN(c3ccccc3)CC2)C1c1cccc([N+](=O)[O-])c1 (stereo not drawn) [Example 53, methyl 2-(4-phenyl-1-piperazinyl)ethyl 2,6-dimethyl-4-(3-nitrophenyl)-1,4-dihydropyridine-3,5-dicarboxylate] | -60 mmHg | -34 mmHg | ca. 8 hrs. | – | – | –
COC(=O)C1=C(C)NC(C)=C(C(=O)OCCN2CCN(c3ccc(C)c(Cl)c3)CC2)C1c1cccc([N+](=O)[O-])c1 (stereo not drawn) [Example 57, 2-[4-(3-chloro-4-methylphenyl)-1-piperazinyl]ethyl methyl 2,6-dimethyl-4-(3-nitrophenyl)-1,4-dihydropyridine-3,5-dicarboxylate] | -85 mmHg | -69 mmHg | 8 to 24 h | – | – | –
COC(=O)C1=C(C)NC(C)=C(C(=O)OCCN2CCN(c3cccc(Cl)c3Cl)CC2)C1c1cccc([N+](=O)[O-])c1 (stereo not drawn) [Example 58, 2-[4-(2,3-dichlorophenyl)-1-piperazinyl]ethyl methyl 2,6-dimethyl-4-(3-nitrophenyl)-1,4-dihydropyridine-3,5-dicarboxylate] | -27 mmHg | -39 mmHg | 8 to 24 h | – | – | –
COC(=O)C1=C(C)NC(C)=C(C(=O)OCCN2CCN(C(c3ccccc3)c3ccccc3)CC2)C1c1cccc2nonc12.Cl.Cl (stereo not drawn) [Example 60, 2-(4-benzhydryl-1-piperazinyl)ethyl methyl 4-(2,1,3-benzoxadiazol-4-yl)-2,6-dimethyl-1,4-dihydropyridine-3,5-dicarboxylate dihydrochloride] | -98 mmHg | -90 mmHg | 8 to 24 h | – | – | –
